For six molecules, Ki results are on record in patent US12559529B2, “NPY2 receptor agonists” (Boehringer Ingelheim International GmbH, priority 2019, dated 2026).

This assay has as its target T1, Human Neuropeptide Y2 Receptor (Homo sapiens, UniProt P49146).
T1 construct: purchased CHEMICON HTS066M
T1 sequence (P49146 1-381): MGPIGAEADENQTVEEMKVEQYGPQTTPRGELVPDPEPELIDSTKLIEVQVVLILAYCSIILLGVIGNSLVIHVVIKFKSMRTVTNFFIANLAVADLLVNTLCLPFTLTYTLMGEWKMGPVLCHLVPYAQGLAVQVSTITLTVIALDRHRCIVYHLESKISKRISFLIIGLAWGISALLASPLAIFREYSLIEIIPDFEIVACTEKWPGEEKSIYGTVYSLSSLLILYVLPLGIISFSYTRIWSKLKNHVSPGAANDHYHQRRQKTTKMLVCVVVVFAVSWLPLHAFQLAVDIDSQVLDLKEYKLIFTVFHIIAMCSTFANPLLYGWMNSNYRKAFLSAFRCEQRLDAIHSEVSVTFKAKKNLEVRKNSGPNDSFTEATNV
Kind of assay: Radioligand binding competition assay (RLB). Particulars: Table 3; human 125I-PYY (1-36) 0.02 nM, Y2 receptor membranes; read-out: Ki. The essentials: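 Filtration format; Y2R membrane prep 0.5 μg/well; buffer 50 mM HEPES/5 mM MgCl2/1 mM CaCl2/0.2% ovalbumin pH 7.4; 2 h RT, shaking. Harvest on PEI-soaked GF/C, ice-cold HEPES/500 mM NaCl washes, scintillation count. IC50 by nonlinear fit.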

Regarding `CC[C@H](C)[C@H](NC(=O)[C@H](CCC(=O)O)NC(=O)[C@H](C)NC(=O)[C@@H]1CCCN1C(=O)[C@H](CO)NC(=O)[C@H](C)NC(=O)[C@H](CC(=O)O)NC(=O)[C@H](CCC(=O)O)NC(=O)[C@H](CCC(=O)O)NC(=O)[C@@H]1CCCN1C(=O)[C@H](CCCCNC(=O)COCCOCCNC(=O)COCCOCCNC(=O)CC[C@H](NC(=O)CCCCCCCCCCCCCCCCC(=O)O)C(=O)O)NC(=O)[C@H](CCC(=O)O)NC(=O)[C@@H]1CCCN1C(=O)[C@H](C)NC(=O)CC(C)C)C(=O)N[C@@H](CCC(N)=O)C(=O)N[C@@H](CCCNC(=N)N)C(=O)N[C@@H](Cc1ccc(O)cc1)C(=O)N[C@@H](Cc1ccc(O)cc1)C(=O)N[C@H](C(=O)N[C@@H](CO)C(=O)N[C@@H](CC(C)C)C(=O)N[C@@H](CCCNC(=N)N)C(=O)N[C@@H](Cc1c[nH]cn1)C(=O)N[C@@H](Cc1ccc(O)cc1)C(=O)N[C@@H](Cc1ccc(O)cc1)C(=O)N[C@@H](CC(N)=O)C(=O)N[C@@H](Cc1c[nH]c2ccccc12)C(=O)N[C@@H](CC(C)C)C(=O)N[C@H](C(=O)N[C@@H](CCCNC(=N)N)C(=O)N[C@@H](CCC(N)=O)C(=O)N[C@@H](CCCNC(=N)N)C(=O)N[C@@H](Cc1ccc(O)cc1)C(N)=O)[C@@H](C)O)C(C)C` [Compound 95, N{alpha-4}-(3-methylbutanoyl)-N{epsilon-7}-[2-(2-{2-[2-(2-{2-[(4S)-4-carboxy-4-(17-carboxyheptadecanamido)butanamido]ethoxy}ethoxy)acetamido]ethoxy}ethoxy)acetamido]-[4A,7K,9E,15A,17I,18Q,22V,28Y,30W,31L]hPYY (4-36)], the Ki was 0.66 nM.
For `CC(C)CC(=O)N[C@@H](C)C(=O)N1CCC[C@H]1C(=O)N[C@@H](C)C(=O)N[C@@H](CCCCNC(=O)COCCOCCNC(=O)COCCOCCNC(=O)CC[C@H](NC(=O)CCCCCCCCCCCCCCCCC(=O)O)C(=O)O)C(=O)N1CCC[C@H]1C(=O)N1CCC[C@H]1C(=O)N[C@@H](CCC(=O)O)C(=O)N[C@@H](CC(=O)O)C(=O)N[C@@H](C)C(=O)N[C@@H](CO)C(=O)N1CCC[C@H]1C(=O)N[C@@H](CCC(=O)O)C(=O)N[C@@H](CCC(=O)O)C(=O)N[C@@H](CC(C)C)C(=O)N[C@@H](CCC(N)=O)C(=O)N[C@@H](CCCNC(=N)N)C(=O)N[C@@H](Cc1ccc(O)cc1)C(=O)N[C@@H](Cc1ccc(O)cc1)C(=O)N[C@H](C(=O)N[C@@H](CO)C(=O)N[C@@H](CC(C)C)C(=O)N[C@@H](CCCNC(=N)N)C(=O)N[C@@H](Cc1c[nH]cn1)C(=O)N[C@@H](Cc1ccc(O)cc1)C(=O)N[C@@H](Cc1ccc(O)cc1)C(=O)N[C@@H](CC(N)=O)C(=O)N[C@@H](Cc1c[nH]c2ccccc12)C(=O)N[C@@H](CC(C)C)C(=O)N[C@H](C(=O)N[C@@H](CCCNC(=N)N)C(=O)N[C@@H](CCC(N)=O)C(=O)N[C@@H](CCCNC(=N)N)C(=O)N[C@@H](Cc1ccc(O)cc1)C(N)=O)[C@@H](C)O)C(C)C` [Compound 100, N{alpha-4}-(3-methylbutanoyl)-N{epsilon-7}-[2-(2-{2-[2-(2-{2-[(4S)-4-carboxy-4-(17-carboxyheptadecanamido)butanamido]ethoxy}ethoxy)acetamido]ethoxy}ethoxy)acetamido]-[4A,6A,7K,9P,18Q,22V,28Y,30W,31L]hPYY (4-36)], the Ki turned out to be 0.44 nM.
Turning to `CC(C)CC(=O)N[C@@H](C)C(=O)N1CCC[C@H]1C(=O)N[C@@H](CCC(=O)O)C(=O)N[C@@H](CCCCNC(=O)COCCOCCNC(=O)COCCOCCNC(=O)CC[C@H](NC(=O)CCCCCCCCCCCCCCCCC(=O)O)C(=O)O)C(=O)N1CCC[C@H]1C(=O)N[C@@H](CCC(=O)O)C(=O)N[C@@H](CCC(=O)O)C(=O)N[C@@H](CC(=O)O)C(=O)N[C@@H](C)C(=O)N[C@@H](CO)C(=O)N1CCC[C@H]1C(=O)N[C@@H](CCC(=O)O)C(=O)N[C@@H](CCC(=O)O)C(=O)N[C@@H](CC(C)C)C(=O)N[C@@H](CCC(N)=O)C(=O)N[C@@H](CCCNC(=N)N)C(=O)N[C@@H](Cc1ccc(O)cc1)C(=O)N[C@@H](Cc1ccc(O)cc1)C(=O)N[C@H](C(=O)N[C@H](C(=O)N[C@@H](CC(C)C)C(=O)N[C@@H](CCCNC(=N)N)C(=O)N[C@@H](Cc1c[nH]cn1)C(=O)N[C@@H](Cc1ccc(O)cc1)C(=O)N[C@@H](Cc1ccc(O)cc1)C(=O)N[C@@H](CC(N)=O)C(=O)N[C@@H](Cc1c[nH]c2ccccc12)C(=O)N[C@@H](CC(C)C)C(=O)N[C@H](C(=O)N[C@@H](CCCNC(=N)N)C(=O)N[C@@H](CCC(N)=O)C(=O)N[C@@H](CCCNC(=N)N)C(=O)N[C@@H](Cc1ccc(O)cc1)C(N)=O)[C@@H](C)O)[C@@H](C)O)C(C)C` [Compound 102, N{alpha-4}-(3-methylbutanoyl)-N{epsilon-7}-[2-(2-{2-[2-(2-{2-[(4S)-4-carboxy-4-(17-carboxyheptadecanamido)butanamido]ethoxy}ethoxy)acetamido]ethoxy}ethoxy)acetamido]-[4A,7K,9E,18Q,22V,23T,28Y,30W,31L]hPYY (4-36)], the Ki was determined as 0.87 nM.
For `CC(C)CC(=O)N[C@@H](C)C(=O)N1CCC[C@H]1C(=O)N[C@@H](CCC(=O)O)C(=O)N[C@@H](CCCCNC(=O)COCCOCCNC(=O)COCCOCCNC(=O)CC[C@H](NC(=O)CCCCCCCCCCCCCCCCC(=O)O)C(=O)O)C(=O)N1CCC[C@H]1C(=O)N[C@@H](CCC(=O)O)C(=O)N[C@@H](CCC(=O)O)C(=O)N[C@@H](CC(=O)O)C(=O)N[C@@H](C)C(=O)N[C@@H](CO)C(=O)N1CCC[C@H]1C(=O)N[C@@H](CCC(=O)O)C(=O)N[C@@H](CCC(=O)O)C(=O)N[C@@H](CC(C)C)C(=O)N[C@@H](CCC(N)=O)C(=O)N[C@@H](CCCCN)C(=O)N[C@@H](Cc1ccc(O)cc1)C(=O)N[C@@H](Cc1ccc(O)cc1)C(=O)N[C@H](C(=O)N[C@@H](C)C(=O)N[C@@H](CC(C)C)C(=O)N[C@@H](CCCNC(=N)N)C(=O)N[C@@H](Cc1c[nH]cn1)C(=O)N[C@@H](Cc1ccc(O)cc1)C(=O)N[C@@H](Cc1ccc(O)cc1)C(=O)N[C@@H](CC(N)=O)C(=O)N[C@@H](Cc1c[nH]c2ccccc12)C(=O)N[C@@H](CC(C)C)C(=O)N[C@H](C(=O)N[C@@H](CCCNC(=N)N)C(=O)N[C@@H](CCC(N)=O)C(=O)N[C@@H](CCCNC(=N)N)C(=O)N[C@@H](Cc1ccc(O)cc1)C(N)=O)[C@@H](C)O)C(C)C` [Compound 107, N{alpha-4}-(3-methylbutanoyl)-N{epsilon-7}-[2-(2-{2-[2-(2-{2-[(4S)-4-carboxy-4-(17-carboxyheptadecanamido)butanamido]ethoxy}ethoxy)acetamido]ethoxy}ethoxy)acetamido]-[4A,7K,9E,18Q,19K,22V,23A,28Y,30W,31L]hPYY (4-36)], the Ki worked out at 1.1 nM.
As to `CC(C)CC(=O)N[C@@H](C)C(=O)N1CCC[C@H]1C(=O)N[C@@H](CCC(=O)O)C(=O)N[C@@H](CCCCNC(=O)COCCOCCNC(=O)COCCOCCNC(=O)CC[C@H](NC(=O)CCCCCCCCCCCCCCCCC(=O)O)C(=O)O)C(=O)N1CCC[C@H]1C(=O)N[C@@H](CCC(=O)O)C(=O)N[C@@H](CCC(=O)O)C(=O)N[C@@H](C)C(=O)N[C@@H](C)C(=O)N[C@@H](CO)C(=O)N1CCC[C@H]1C(=O)N[C@@H](CCC(=O)O)C(=O)N[C@@H](CCC(=O)O)C(=O)N[C@@H](CC(C)C)C(=O)N[C@@H](CCC(N)=O)C(=O)N[C@@H](CCCNC(=N)N)C(=O)N[C@@H](Cc1ccc(O)cc1)C(=O)N[C@@H](Cc1ccc(O)cc1)C(=O)N[C@H](C(=O)N[C@@H](CO)C(=O)N[C@@H](CC(C)C)C(=O)N[C@@H](CCCNC(=N)N)C(=O)N[C@@H](Cc1c[nH]cn1)C(=O)N[C@@H](Cc1ccc(O)cc1)C(=O)N[C@@H](Cc1ccc(O)cc1)C(=O)N[C@@H](CC(N)=O)C(=O)N[C@@H](Cc1c[nH]c2ccccc12)C(=O)N[C@@H](CC(C)C)C(=O)N[C@H](C(=O)N[C@@H](CCCNC(=N)N)C(=O)N[C@@H](CCC(N)=O)C(=O)N[C@@H](CCCNC(=N)N)C(=O)N[C@@H](Cc1ccc(O)cc1)C(N)=O)[C@@H](C)O)C(C)C` [Compound 109, N{alpha-4}-(3-methylbutanoyl)-N{epsilon-7}-[2-(2-{2-[2-(2-{2-[(4S)-4-carboxy-4-(17-carboxyheptadecanamido)butanamido]ethoxy}ethoxy)acetamido]ethoxy}ethoxy)acetamido]-[4A,7K,9E,11A,18Q,22V,28Y,30W,31L]hPYY (4-36)], the Ki was determined as 0.94 nM.
For the molecule `CC(C)CC(=O)N[C@@H](C)C(=O)N1CCC[C@H]1C(=O)N[C@@H](CCC(=O)O)C(=O)N[C@@H](CCCCNC(=O)COCCOCCNC(=O)COCCOCCNC(=O)CC[C@H](NC(=O)CCCCCCCCCCCCCCCCC(=O)O)C(=O)O)C(=O)N1CCC[C@H]1C(=O)N[C@@H](CCC(=O)O)C(=O)N[C@@H](CCC(=O)O)C(=O)N[C@@H](CC(=O)O)C(=O)N[C@@H](C)C(=O)N[C@@H](CCC(=O)O)C(=O)N1CCC[C@H]1C(=O)N[C@@H](CCC(=O)O)C(=O)N[C@@H](CCC(=O)O)C(=O)N[C@@H](CC(C)C)C(=O)N[C@@H](CCC(N)=O)C(=O)N[C@@H](CCCNC(=N)N)C(=O)N[C@@H](Cc1ccc(O)cc1)C(=O)N[C@@H](Cc1ccc(O)cc1)C(=O)N[C@H](C(=O)N[C@@H](CCC(=O)O)C(=O)N[C@@H](CC(C)C)C(=O)N[C@@H](CCCNC(=N)N)C(=O)N[C@@H](Cc1c[nH]cn1)C(=O)N[C@@H](Cc1ccc(O)cc1)C(=O)N[C@@H](Cc1ccc(O)cc1)C(=O)N[C@@H](CC(N)=O)C(=O)N[C@@H](Cc1c[nH]c2ccccc12)C(=O)N[C@@H](CC(C)C)C(=O)N[C@H](C(=O)N[C@@H](CCCNC(=N)N)C(=O)N[C@@H](CCC(N)=O)C(=O)N[C@@H](CCCNC(=N)N)C(=O)N[C@@H](Cc1ccc(O)cc1)C(N)=O)[C@@H](C)O)C(C)C` [Compound 111, N{alpha-4}-(3-methylbutanoyl)-N{epsilon-7}-[2-(2-{2-[2-(2-{2-[(4S)-4-carboxy-4-(17-carboxyheptadecanamido)butanamido]ethoxy}ethoxy)acetamido]ethoxy}ethoxy)acetamido]-[4A,7K,9E,13E,18Q,22V,23E,28Y,30W,31L]hPYY (4-36)], the Ki is 5.43 nM.

In general, Ki refers to the dissociation constant of the complex between target and ligand, obtained from inhibition or displacement.
